What was measured:
Assay in all cases: combination Emax (second highest fraction inhibited in the dose matrix, 72 h); higher = more inhibition; extreme values may be limits of the assay
[1] = test system: BHT-101 (Thyroid Gland Carcinoma)
In short: (§1)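 Cell lines in DMEM/F12 or RPMI with 10% FBS were plated in 1536-well plates, held 24 hours at 37°C, 5% CO2, then given two-drug dose matrices for 72 hours (DMSO typically 0.2%). Viability was read by CellTiter-Glo 2.0 luminescence and scaled as inhibition from 0 (vehicle wells) to 1 (blank wells). Combination Emax is the second-highest inhibition in the matrix; Bliss excess is observed combination effect minus expected EA + EB − EA·EB, EA and EB being single-agent effects.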

[2] = test system: CPC-N (Small Cell Lung Carcinoma)
In short: as §1

ES6 (Ewing's Sarcoma) = test system: ES6 (Ewing's Sarcoma)
In short: as §1

GAK (Melanoma) = test system: GAK (Melanoma)
In short: as §1

[3] = test system: IA-LM (Non-Small Cell Lung Carcinoma)
In short: as §1

[4] = test system: KP-4 (Pancreatic Carcinoma)
In short: as §1

[5] = test system: LCLC-103H (Non-Small Cell Lung Carcinoma)
In short: as §1

[6] = test system: MDA-MB-415 (Breast Carcinoma)
In short: as §1

[7] = test system: MOLT-13 (T-Lymphoblastic Leukemia)
In short: as §1

[8] = test system: MONO-MAC-6 (Acute Myeloid Leukemia)
In short: as §1

[9] = test system: NCI-H1876 (Small Cell Lung Carcinoma)
In short: as §1

[10] = test system: NCI-H1963 (Small Cell Lung Carcinoma)
In short: as §1

NCI-H226 (Mesothelioma) = test system: NCI-H226 (Mesothelioma)
In short: as §1

[11] = test system: NCI-H596 (Other Solid Carcinomas)
In short: as §1

[12] = test system: OVCAR-3 (Ovarian Carcinoma)
In short: as §1

[13] = test system: PA-TU-8988T (Pancreatic Carcinoma)
In short: as §1

[14] = test system: SCC-4 (Oral Cavity Carcinoma)
In short: as §1

[15] = test system: SK-CO-1 (Colorectal Carcinoma)
In short: as §1

SK-N-SH (Neuroblastoma) = test system: SK-N-SH (Neuroblastoma)
In short: as §1

[16] = test system: SNU-407 (Colorectal Carcinoma)
In short: as §1

SMILES	combination Emax [1]	combination Emax [2]	combination Emax (ES6 (Ewing's Sarcoma))	combination Emax (GAK (Melanoma))	combination Emax [3]	combination Emax [4]	combination Emax [5]	combination Emax [6]	combination Emax [7]	combination Emax [8]	combination Emax [9]	combination Emax [10]	combination Emax (NCI-H226 (Mesothelioma))	combination Emax [11]	combination Emax [12]	combination Emax [13]	combination Emax [14]	combination Emax [15]	combination Emax (SK-N-SH (Neuroblastoma))	combination Emax [16]
C=CCn1c(=O)c2cnc(Nc3ccc(N4CCN(C)CC4)cc3)nc2n1-c1cccc(C(C)(C)O)n1 [AZD1775] + O=C(c1cc(Cc2n[nH]c(=O)c3ccccc23)ccc1F)N1CCN(C(=O)C2CC2)CC1 [Olaparib] (first compound max 1 µM, partner max 10 µM)	0.406	0.93	0.444	0.804	0.252	0.721	0.546	0.229	0.975	0.942	0.968	0.845	0.342	0.431	0.532	0.8	0.496	0.662	0.882	0.465
CCN(CCO)CCCOc1ccc2c(Nc3cc(CC(=O)Nc4cccc(F)c4)[nH]n3)ncnc2c1 [AZD2811] + C=CCn1c(=O)c2cnc(Nc3ccc(N4CCN(C)CC4)cc3)nc2n1-c1cccc(C(C)(C)O)n1 [AZD1775] (first compound max 1 µM, partner max 1 µM)	0.318	0.961	0.285	0.682	0.166	0.651	0.546	0.131	1	0.958	0.991	0.876	0.185	0.346	0.262	0.678	0.454	0.674	0.787	0.416
CCN(CCO)CCCOc1ccc2c(Nc3cc(CC(=O)Nc4cccc(F)c4)[nH]n3)ncnc2c1 [AZD2811] + C[C@@H]1COCCN1C2=NC(=NC(=C2)C3(CC3)[S@](=N)(=O)C)C4=C5C=CNC5=NC=C4 [AZD6738] (first compound max 1 µM, 7x7, partner max 10 µM)	0.555	0.961	0.6	0.564	0.304	0.611	0.5	0.498	0.993	0.908	0.963	0.887	0.233	0.377	0.221	0.35	0.633	0.7	0.906	0.658
COc1nnc2ccc(N3CCC(c4ccc(OCCN5CCN(C)C(=O)[C@H]5C)cc4)CC3)nn12 [AZD5153] + CN(CC[C@H](CSC1=CC=CC=C1)NC2=C(C=C(C=C2)S(=O)(=O)NC(=O)C3=CC=C(C=C3)N4CCC(CC4)[C@H](C5=CC=CC=C5C6=CC=C(C=C6)Cl)O)S(=O)(=O)C(F)(F)F)CCO [AZD4320] (first compound max 1 µM, 7x7, partner max 1 µM)	0.737								1		0.977	1		0.823	0.601	0.695				0.902
Cc1c2c(nn1C)CSCc1cc(n(C)n1)CSc1cc(c3ccccc3c1)OCCCc1c(C(=O)O)n(C)c3c-2c(Cl)ccc13 [AZD5991] + CCN(CCO)CCCOc1ccc2c(Nc3cc(CC(=O)Nc4cccc(F)c4)[nH]n3)ncnc2c1 [AZD2811] (first compound max 1 µM, 7x7, partner max 1 µM)	0.267	0.835	0.29	0.314	0.296	0.667	0.371	0.56	1	1	0.998	0.842	0.262		0.378	0.775	0.663	0.73	0.614	0.694
CC(=O)c1c(C)c2cnc(Nc3ccc(N4CCNCC4)cn3)nc2n(C2CCCC2)c1=O [Palbociclib] + CN(CC[C@H](CSC1=CC=CC=C1)NC2=C(C=C(C=C2)S(=O)(=O)NC(=O)C3=CC=C(C=C3)N4CCC(CC4)[C@H](C5=CC=CC=C5C6=CC=C(C=C6)Cl)O)S(=O)(=O)C(F)(F)F)CCO [AZD4320] (first compound max 10 µM, 7x7, partner max 1 µM)	0.598								0.975		0.926	1		0.521	0.204	0.33				0.483
CCc1c2c(nc3ccc(O)cc13)-c1cc3c(c(=O)n1C2)COC(=O)[C@]3(O)CC [SN-38] + O=C(c1cc(Cc2n[nH]c(=O)c3ccccc23)ccc1F)N1CCN(C(=O)C2CC2)CC1 [Olaparib] (first compound max 0.3 µM, 7x7, partner max 10 µM)		0.392	0.618	0.472	0.878	0.817	0.54	0.321	1	1		0.854	0.168		0.687	0.604	0.847	0.798	0.959	
C[C@@H](c1ccc2nccn2c1)n1nnc2ncc(-c3cnn(C)c3)nc21 [Savolitinib] + CN(CC[C@H](CSC1=CC=CC=C1)NC2=C(C=C(C=C2)S(=O)(=O)NC(=O)C3=CC=C(C=C3)N4CCC(CC4)[C@H](C5=CC=CC=C5C6=CC=C(C=C6)Cl)O)S(=O)(=O)C(F)(F)F)CCO [AZD4320] (first compound max 1 µM, 7x7, partner max 1 µM)	0.176								0.912		0.797	1		0.275	0.131	0.191				0.722
